Source: publication PMC11943435, “Functional Investigation of the Receptor to the Major Pheromone Component in the C-Strain and the R-Strain of the Fall Armyworm Spodoptera frugiperda” (Insects, 2025)

Molecular target: T1, C-SfruOR13 (SfruOR13 from the C-strain) (Spodoptera frugiperda, UniProt A0A9R0CXR4)
T1 construct: gene LOC118264496; full-length ORF (435 residues), synthesized, pUAST.attB; expressed in Drosophila at1 trichoid OSNs (Or67d-GAL4) replacing OR67d; Orco is that of the fly host; with Odorant receptor coreceptor (endogenous, Drosophila melanogaster)
T1 sequence (A0A9R0CXR4 1-435): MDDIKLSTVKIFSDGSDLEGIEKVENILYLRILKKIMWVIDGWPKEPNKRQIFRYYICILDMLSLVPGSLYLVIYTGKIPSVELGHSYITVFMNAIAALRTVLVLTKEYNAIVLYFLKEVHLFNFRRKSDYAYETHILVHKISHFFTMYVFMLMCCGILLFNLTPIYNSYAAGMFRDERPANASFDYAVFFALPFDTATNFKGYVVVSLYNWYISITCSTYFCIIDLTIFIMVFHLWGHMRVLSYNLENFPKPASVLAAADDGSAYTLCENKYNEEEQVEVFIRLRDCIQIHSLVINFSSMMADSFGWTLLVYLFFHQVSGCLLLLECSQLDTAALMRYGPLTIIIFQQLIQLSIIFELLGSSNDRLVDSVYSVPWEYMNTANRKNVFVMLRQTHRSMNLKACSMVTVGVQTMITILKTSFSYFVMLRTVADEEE
T1 sequence (Q9VNB5 1-486 partner): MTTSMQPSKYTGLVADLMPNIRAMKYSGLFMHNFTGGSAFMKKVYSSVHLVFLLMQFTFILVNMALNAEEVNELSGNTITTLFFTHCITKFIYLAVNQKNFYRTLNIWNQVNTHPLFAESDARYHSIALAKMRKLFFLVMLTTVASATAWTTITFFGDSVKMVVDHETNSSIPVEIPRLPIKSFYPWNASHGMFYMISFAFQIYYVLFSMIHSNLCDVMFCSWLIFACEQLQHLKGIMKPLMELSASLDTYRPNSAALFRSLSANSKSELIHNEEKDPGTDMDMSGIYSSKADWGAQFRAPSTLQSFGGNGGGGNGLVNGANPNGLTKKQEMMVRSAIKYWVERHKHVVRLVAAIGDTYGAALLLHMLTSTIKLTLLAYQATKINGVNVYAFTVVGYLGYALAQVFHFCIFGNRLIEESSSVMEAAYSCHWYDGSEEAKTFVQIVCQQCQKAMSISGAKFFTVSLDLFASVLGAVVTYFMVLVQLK
Assay: single-sensillum recording, Drosophila at1 OSNs, dose-response
Type: cell-based
Conditions: agonist; vapour stimulus, 10 ng to 10 µg loaded on filter paper in hexane

## CCCC/C=C\CCCCCCCCOC(C)=O [(Z)-9-14:OAc, (Z)-9-tetradecenyl acetate]
  single-sensillum recording, Drosophila at1 OSNs, dose-response: C-SfruOR13 was significantly activated by the same three compounds that elicited a response in R-SfruOR13
